ChEMBL document CHEMBL2007661, “Compounds: GSK PKIS; Assays: UNC Frye lab” (2012)

These compounds were tested against T1, Tyrosine-protein kinase Mer (Homo sapiens) (UniProt Q12866). Settings: at 10 µM.
T1 sequence (whole entry): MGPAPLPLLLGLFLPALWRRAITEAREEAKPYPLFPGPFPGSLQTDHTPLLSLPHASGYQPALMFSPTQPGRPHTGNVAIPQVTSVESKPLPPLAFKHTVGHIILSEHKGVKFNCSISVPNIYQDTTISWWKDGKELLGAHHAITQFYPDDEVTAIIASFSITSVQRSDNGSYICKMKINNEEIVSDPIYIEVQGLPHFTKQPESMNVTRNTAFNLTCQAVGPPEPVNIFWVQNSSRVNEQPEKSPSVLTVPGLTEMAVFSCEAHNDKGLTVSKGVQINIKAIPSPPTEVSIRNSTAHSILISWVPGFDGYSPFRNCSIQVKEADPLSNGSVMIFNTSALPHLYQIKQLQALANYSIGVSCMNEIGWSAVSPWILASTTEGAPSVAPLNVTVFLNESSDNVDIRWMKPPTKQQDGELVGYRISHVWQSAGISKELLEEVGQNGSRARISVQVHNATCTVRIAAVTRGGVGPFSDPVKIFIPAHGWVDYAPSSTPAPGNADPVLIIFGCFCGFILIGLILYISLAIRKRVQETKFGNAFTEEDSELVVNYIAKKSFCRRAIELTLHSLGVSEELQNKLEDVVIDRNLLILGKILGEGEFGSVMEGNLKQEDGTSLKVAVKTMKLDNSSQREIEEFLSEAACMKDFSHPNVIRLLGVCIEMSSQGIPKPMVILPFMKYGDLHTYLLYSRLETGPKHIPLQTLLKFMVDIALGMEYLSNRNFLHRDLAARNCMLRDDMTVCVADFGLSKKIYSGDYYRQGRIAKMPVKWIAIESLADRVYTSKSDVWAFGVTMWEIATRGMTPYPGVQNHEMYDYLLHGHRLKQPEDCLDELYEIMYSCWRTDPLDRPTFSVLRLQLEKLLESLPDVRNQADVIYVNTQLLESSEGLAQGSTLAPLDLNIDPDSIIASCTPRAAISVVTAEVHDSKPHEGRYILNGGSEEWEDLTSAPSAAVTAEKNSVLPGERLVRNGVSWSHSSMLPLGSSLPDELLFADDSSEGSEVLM

Row | Structure (SMILES) | inhibition
1 | CCn1c(-c2nonc2N)nc2ccc(F)cc21 | -4%
2 | Nc1nonc1-c1nc2cnccc2n1C1CCCCC1 | 1%
3 | Cc1cc(O)cc(C)c1/C=C/c1cncc(C(=O)OC(C)(C)C)c1 | -2%
4 | COC(=O)c1cncc(/C=C/c2c(C)cc(O)cc2C)c1 | -6%
5 | Cc1ccc(C(=O)NC2CCC2)cc1-c1ccc(C(=O)NCC2CC2)cc1 | 2%
6 | COc1ccc(-c2ccc3c(NC(=O)C4CC4)n[nH]c3n2)cc1 | -5%
7 | NS(=O)(=O)c1ccc(N/N=C2\C(=O)Nc3ccc(C(=O)NCCc4c[nH]cn4)cc32)cc1 | -1%
8 | C#Cc1cccc(Nc2ncnc3ccc(OCCCCNCCS(C)(=O)=O)cc23)c1 | 6%
9 | COc1c(C(N)=O)cc(-c2ccc(Cl)cc2)cc1-c1ccc(S(N)(=O)=O)cc1 | -6%
10 | O=C(Nc1n[nH]c2cc(-c3cc(F)ccc3F)ccc12)C1CC1 | 6%
11 | CCn1c(-c2nonc2N)nc2cncc(C(=O)N3CCNCC3)c21 | 0%
12 | COC(=O)Nc1nc2ccc(Sc3ccc(NC(=O)Nc4cc(C(F)(F)F)ccc4F)cc3)cc2[nH]1 | 21%
13 | NS(=O)(=O)c1cccc(Nc2cc(-c3ccc(F)cc3)n[nH]2)c1 | 0%
14 | CCc1nccc2c1nc(-c1nonc1N)n2CC | -3%
15 | O=C(O[C@H]1CN[C@H](C#Cc2cc3ncnc(Nc4ccc(OCc5cccc(F)c5)c(Cl)c4)c3s2)C1)N1CCOCC1 | -3%
16 | Cn1c(-c2nonc2N)nc2cnccc21 | -9%
17 | CN1CCN(C(=O)c2ccc(NC(=O)Nc3ccc(N(C)c4ccnc(Nc5ccc(CS(C)(=O)=O)cc5)n4)cc3)cc2)CC1 | 0%
18 | Cc1ccc2c(c1)/C(=N/Nc1ccc(S(N)(=O)=O)cc1)C(=O)N2 | 66%
19 | CS(=O)(=O)CCNCc1ccc(-c2ccc3ncnc(Nc4ccc(OCc5cccc(C(F)(F)F)c5)cc4)c3c2)o1 | -2%
20 | Fc1ccc(-c2nc3n(c2-c2ccncc2)CCS3)cc1 | 73%
21 | COc1ccc(-c2ccncc2)cc1C(N)=O | 3%
22 | Cc1ccc(C(=O)NC(C)C)cc1-c1ccc(C(=O)NCC2CC2)cc1 | -2%

Row | Structure (SMILES) | inhibition
23 | Nc1nccc(-c2c(-c3ccc(F)cc3)ncn2C2CCC(O)CC2)n1 (stereo not given) | 29%
24 | CCn1c(-c2nonc2N)nc2c(C#CCN)ncc(OCCCN)c21 | -4%
25 | CN1CCC(n2cnc(-c3ccc(F)cc3)c2-c2ccnc(NCCO)n2)CC1 | -2%
26 | COc1cc2c(cc1Nc1nc(Nc3ccsc3C(N)=O)c3cc[nH]c3n1)N(C(=O)CN(C)C)CCC2(C)C | 68%
27 | CCn1c(-c2nonc2N)nc2c(C#CC(C)(C)O)nc(OC[C@@H](N)c3ccccc3)cc21 | -1%
28 | NC(=O)Cc1ccccc1Oc1nccc(-c2c(-c3ccc(F)cc3)ncn2C2CCNCC2)n1 | 71%
29 | Nc1ncc(-c2cccc(S(N)(=O)=O)c2)c2scc(-c3ccc(F)c(Cl)c3)c12 | 3%
30 | Clc1ccc(CNc2nccc(-c3cnn4ncccc34)n2)cc1 | -4%
31 | O=C(O[C@H]1CN[C@H](C#Cc2cc3ncnc(Nc4ccc(Cc5ccccc5)cc4)c3s2)C1)N1CCOCC1 | 5%
32 | N#Cc1c(NC(=O)c2cccc3ccccc23)sc2c1CCCC2 | 78%
33 | N#Cc1c(NC(=O)c2ccc(F)cc2)sc2c1CCCC2 | 1%
34 | COc1ccc(-c2coc3ncnc(N)c23)cc1 | -3%
35 | CCN1CCC(C(=O)Nc2n[nH]c3nnc(-c4cccc(F)c4F)cc23)CC1 | -7%
36 | CC1=C(C(=O)Nc2ccc3[nH]nc(C)c3c2)C(c2ccc(C(F)(F)F)cc2)CC(=O)N1 (stereo not given) | 44%
37 | O=C1NC(=O)C(c2cccc(Cl)c2)=C1Nc1ccc(Cl)c(C(=O)O)c1 | 27%
38 | c1cnn2ncc(-c3ccnc(NCCCN4CCOCC4)n3)c2c1 | 81%
39 | NS(=O)(=O)c1cccc(-c2ccc3c(NC(=O)C4CC4)n[nH]c3c2)c1 | -7%
40 | COc1cc(/C=N/Nc2ncnc3[nH]ncc23)ccc1O | 6%
41 | Nc1nccc(-c2c(-c3ccc(F)cc3)ncn2CCCN2CCOCC2)n1 | 4%
42 | COc1cc2c(cc1Nc1nc(Nc3cccc(F)c3C(N)=O)c3cc[nH]c3n1)N(C(=O)CN1CCN(C(C)C)CC1)CC2 | -7%
43 | CCc1cccc(CC)c1/C=C/c1cncc(C(=O)NC)c1 | -7%

The remaining lines, values ahead:

Row | inhibition | Structure (SMILES)
44 | -4% | COc1ccc(-c2nn3ncccc3c2-c2ccnc(Nc3ccc(F)c(F)c3)n2)cc1
45 | 1% | Nc1nc(-c2cccc(Cl)c2)c(-c2ccc3ncccc3n2)s1
46 | 5% | COc1cc(Nc2nccc(-c3cnn4ncccc34)n2)cc(OC)c1
47 | -6% | COc1cccc(/C=N/Nc2ncnc3c2cnn3-c2cccc(OC)c2)c1
48 | -3% | NS(=O)(=O)c1ccc(-c2cc3ccncc3cc2OCc2ccccc2)cc1
49 | -6% | FC(F)(F)c1ccc(-c2nn3ncccc3c2-c2ccnc(Nc3ccc4c(c3)OCCO4)n2)cc1
50 | 14% | CS(=O)(=O)CCNCc1ccc(-c2ccc3ncnc(Nc4ccc(OCc5ccccc5)c(Br)c4)c3c2)o1
51 | 5% | COc1cc(C=NNc2ncnc3c2cnn3Cc2ccccc2)ccc1O
52 | -1% | COC(=O)c1sc(-n2cnc3cc(OC)c(OC)cc32)cc1OCc1ccccc1C(F)(F)F
53 | 79% | CCS(=O)(=O)c1ccc(OC)c(Nc2ncc(-c3cccc(-c4ccccc4F)c3)o2)c1
54 | -5% | [O-][S+]1CCN(Cc2ccc(-c3ccc4ncnc(Nc5ccc(OCc6ccccc6)c(Cl)c5)c4c3)o2)CC1
55 | 4% | Cc1ccc2c(-c3ccnc(Nc4cccc(C(F)(F)F)c4)n3)c(-c3ccccc3)nn2n1
56 | -5% | COc1cc(Nc2nccc(Nc3ccc4c(C)n[nH]c4c3)n2)cc(OC)c1OC
57 | 50% | NC(=O)c1cccc(Nc2nccc(Nc3cccc(F)c3)n2)c1
58 | 4% | COc1cc(N2CCN(C(C)C)CC2)ccc1Nc1nc(Nc2ccc(F)cc2C(N)=O)c2cc[nH]c2n1
59 | 69% | COc1cc2ncn(-c3cc(O[C@@H](C)c4ccccc4Cl)c(C(N)=O)s3)c2cc1OC
60 | -10% | COc1cc2ncnc(Nc3ccc(C)c(O)c3)c2cc1OC
61 | 45% | NC(=O)c1sc(-n2cnc3ccccc32)cc1OCc1ccccc1Br
62 | 6% | COc1ccc(-c2nn3ncccc3c2-c2ccnc(Nc3cccc(C(F)(F)F)c3)n2)cc1

Row | inhibition | Structure (SMILES)
63 | 4% | CNC(=O)c1sc(-n2cnc3cc(OC)c(OC)cc32)cc1OCc1ccccc1C(F)(F)F
64 | 0% | c1ccc(-c2n[nH]cc2-c2ccnc(-c3ccc(OCCn4ccnc4)cc3)c2)nc1
65 | 50% | CS(=O)(=O)CCNCc1ccc(-c2ccc3ncnc(Nc4ccc(OCc5cccc(F)c5)c(C(F)(F)F)c4)c3c2)o1
66 | -5% | CCOc1ccc2c(-c3ccnc(Nc4cc(OC)cc(C(F)(F)F)c4)n3)cnn2n1
67 | 86% | COc1ccc2ncn(-c3cc(O[C@H](C)c4ccccc4Cl)c(C(N)=O)s3)c2c1
68 | -6% | COc1cc(Nc2ncc3c(C)nc(-c4cccc(Oc5ccccc5)c4)n3n2)cc(OC)c1OC
69 | 4% | COC(=O)Nc1nc2cc(Oc3ccc(NC(=O)Nc4cccc(Br)c4)cc3)ccc2[nH]1
70 | 61% | CNC(=O)c1cccc(C#Cc2cncnc2Nc2ccc(OCc3cccc(F)c3)c(Cl)c2)c1
71 | 80% | N#Cc1cccc(Nc2ncc(-c3ccccc3)o2)c1
72 | 78% | Fc1cccc(COc2ccc(Nc3ncnc4sc(-c5ccco5)cc34)cc2Cl)c1
73 | -2% | COc1ccccc1-c1cc(/C=C2\C(=O)Nc3ncc(Br)cc32)cc(Br)c1O
74 | -10% | Fc1cccc(COc2ccc(Nc3ncnc4sc(-c5cccs5)cc34)cc2Cl)c1
75 | 5% | O=S(=O)(CCOCc1ccc(-c2ccc3ncnc(Nc4ccc(OCc5cccc(F)c5)c(Cl)c4)c3c2)o1)c1ccccc1
76 | 99% | c1ccc(COc2ccc(Nc3ncnc4ccc(-c5ccco5)cc34)cc2)cc1
77 | -6% | CCCN1CCC(Oc2cc(Nc3nc(Nc4cccc(F)c4C(N)=O)c4cc[nH]c4n3)c(OC)cc2Cl)CC1
78 | -2% | FC(F)(F)c1cccc(Nc2nccc(-c3cnn4nc(-c5ccccc5)ccc34)n2)c1
79 | 3% | COc1ccc2ncn(-c3cc(O[C@H](C)c4ccccc4C(F)(F)F)c(C(N)=O)s3)c2c1
80 | 83% | COc1cc2ncn(-c3cc(OCc4ccccc4Cl)c(C(N)=O)s3)c2cc1OC
